Results from patent US20250154109A1, “SODIUM CHANNEL BLOCKING COMPOUNDS, DERIVATIVES THEREOF, AND METHODS OF THEIR USE” (LATIGO BIOTHERAPEUTICS, INC, priority 2022, published 2025).
Read-outs that look alike come from different tables or passages of the source.

Molecular target: human Nav1.8 (Homo sapiens, UniProt Q9Y5Y9)
Test: SyncroPatch384PE assay (automated patch clamp)
Assay type: cell-based
Conditions: human Nav1.8/b3 CHO cells
Experimental: Compounds were tested on recombinant human Nav1.8/b3 stably transfected CHO cells using the SyncroPatch384PE system (Nanion Technologies), an automated patch clamp device. Cells were cultured at 37° C./5% CO2 in Ham's F-12 supplemented with 10% fetal bovine serum, 100 U/mL penicillin G sodium, […] streptomycin sulfate and selection antibiotics (0.01 mg/mL Blasticidin, 0.4 mg/mL Zeocin and 0.25 mg/mL Hygromycin). On the day of the recordings, cells in culture dishes were washed twice with Hank's Balanced Salt Solution (HBSS) and treated with Accutase for approximately 20 minutes. Immediately before use in the SynchroPatch384PE using an 8-hole NPC-384 chip, the cells were washed in HBSS to remove the Accutase and re-suspended in extracellular solution. All experiments were performed at ambient temperature. Intracellular solution contained (mM): CsCl, 50; CsF, 90; MgCl2, 5; EGTA, 1; HEPES, 10; pH adjusted to 7.2 with CsOH. Extracellular solution contained (mM): NaCl, 137; KCl, 4.0; CaCl2), 3.8; MgCl2, 1; HEPES, 10; Glucose, 10; pH adjusted to 7.4 with NaOH. 100 nM tetrodotoxin (TTX) was added to the extracellular solution to block endogenous TTX-sensitive sodium currents.
Compounds were tested in quadruplicate in 0.3% DMSO and 0.03% pluronic Acid. Compounds were diluted 1:3.33 in extracellular solution to create an 8-point concentration response curve. Each plate contained a historical positive control and up to ten compounds. 300 μM tetracaine and 0.3% DMSO+0.03% pluronic acid were used as high and low controls respectively.
Whole cell patch clamp recordings were conducted according to Nanion's standard procedure for SyncroPatch384PE®. Cells were held at a holding potential of −120 mV. A depolarization step to 10 mV for 30 ms was applied (P1 measurement), followed by a hyperpolarization step to −100 mV for 100 ms. An inactivation step at −35 mV for 10 sec was applied before stepping to −100 mV for 20 ms, followed by a step to 10 mV for 30 ms (P2 measurement) and then back to −100 mV for 30 ms. Sweep interval was 15 sec. Following establishment of the whole-cell configuration in extracellular solution, cells were washed in extracellular solution containing 0.3% DMSO and 0.03% pluronic acid to stabilize the baseline current. Compounds were then applied by the SynchroPatch384 PE system into each well and the current was recorded for five minutes in extracellular solution, followed by application of tetracaine to achieve full block at the end of experiment. The potency of the compounds was assessed on two read-outs, resting state block (P1 measurement) or inactivated state block (P2 measurement) to obtain IC50 values. Values were normalized to high (tetracaine) and low (DMSO+pluronic acid) controls.
Examples 1 to 219 and Examples 225 to 236 are assayed using SyncroPatch384PE assay described above.

[1] = inactivated state block (P2 measurement), read-out: P2 IC50
[2] = resting state block (P1 measurement), read-out: P1 IC50

Chain of human Nav1.8 (Q9Y5Y9 whole entry): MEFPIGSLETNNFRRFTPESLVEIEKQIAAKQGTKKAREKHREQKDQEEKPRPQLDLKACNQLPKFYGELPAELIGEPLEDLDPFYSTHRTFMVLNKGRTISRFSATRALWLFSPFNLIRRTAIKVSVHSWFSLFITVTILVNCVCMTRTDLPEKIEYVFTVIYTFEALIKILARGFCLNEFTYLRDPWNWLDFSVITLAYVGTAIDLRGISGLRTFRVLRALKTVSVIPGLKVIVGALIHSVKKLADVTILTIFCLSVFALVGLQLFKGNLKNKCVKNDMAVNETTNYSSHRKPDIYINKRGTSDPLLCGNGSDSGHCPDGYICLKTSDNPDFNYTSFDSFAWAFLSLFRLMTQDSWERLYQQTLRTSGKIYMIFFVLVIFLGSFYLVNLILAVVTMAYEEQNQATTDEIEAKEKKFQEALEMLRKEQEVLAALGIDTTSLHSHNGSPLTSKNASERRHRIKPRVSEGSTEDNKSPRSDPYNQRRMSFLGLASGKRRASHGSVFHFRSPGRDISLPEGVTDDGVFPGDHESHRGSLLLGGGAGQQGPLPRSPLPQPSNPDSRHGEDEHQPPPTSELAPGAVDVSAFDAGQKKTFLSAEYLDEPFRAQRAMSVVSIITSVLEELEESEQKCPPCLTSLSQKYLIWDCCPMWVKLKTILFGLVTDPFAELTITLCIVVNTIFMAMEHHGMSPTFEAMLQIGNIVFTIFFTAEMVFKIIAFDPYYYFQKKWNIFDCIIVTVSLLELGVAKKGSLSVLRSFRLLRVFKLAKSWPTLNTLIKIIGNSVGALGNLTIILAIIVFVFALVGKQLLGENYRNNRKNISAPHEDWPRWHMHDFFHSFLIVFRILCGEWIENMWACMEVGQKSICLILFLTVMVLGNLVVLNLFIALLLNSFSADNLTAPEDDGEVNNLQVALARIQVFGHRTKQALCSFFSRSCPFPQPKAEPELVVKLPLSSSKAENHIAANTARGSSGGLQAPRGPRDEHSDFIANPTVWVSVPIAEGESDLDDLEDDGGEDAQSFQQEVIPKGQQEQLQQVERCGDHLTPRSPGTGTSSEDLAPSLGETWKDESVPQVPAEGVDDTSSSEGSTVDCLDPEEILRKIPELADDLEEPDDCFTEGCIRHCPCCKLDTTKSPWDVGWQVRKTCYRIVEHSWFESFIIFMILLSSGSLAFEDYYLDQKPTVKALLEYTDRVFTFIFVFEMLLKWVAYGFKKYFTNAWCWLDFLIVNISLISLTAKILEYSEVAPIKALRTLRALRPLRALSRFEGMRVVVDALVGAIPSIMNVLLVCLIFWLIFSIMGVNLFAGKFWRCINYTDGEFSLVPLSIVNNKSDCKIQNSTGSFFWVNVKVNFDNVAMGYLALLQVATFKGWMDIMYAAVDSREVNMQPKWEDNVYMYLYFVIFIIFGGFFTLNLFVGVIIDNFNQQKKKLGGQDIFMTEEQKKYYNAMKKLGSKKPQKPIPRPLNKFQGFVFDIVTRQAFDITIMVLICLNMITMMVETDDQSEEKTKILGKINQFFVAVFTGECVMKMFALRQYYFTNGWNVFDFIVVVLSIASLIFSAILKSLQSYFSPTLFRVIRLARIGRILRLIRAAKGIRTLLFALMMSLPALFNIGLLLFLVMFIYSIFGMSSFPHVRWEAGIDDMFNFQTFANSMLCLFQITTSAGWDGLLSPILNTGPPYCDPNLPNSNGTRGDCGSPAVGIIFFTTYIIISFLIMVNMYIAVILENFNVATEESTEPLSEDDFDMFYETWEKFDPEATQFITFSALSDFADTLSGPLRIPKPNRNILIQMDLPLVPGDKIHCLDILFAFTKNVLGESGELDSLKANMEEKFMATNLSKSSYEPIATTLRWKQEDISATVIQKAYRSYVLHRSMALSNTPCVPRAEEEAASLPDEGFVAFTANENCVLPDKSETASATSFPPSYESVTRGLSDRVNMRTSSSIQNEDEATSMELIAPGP

SMILES	IC50 [1] [nM]	IC50 [2] [nM]
Cc1c(-c2cnn(C)c2)cnc(N2CCCC(F)(F)CC2)c1C(=O)Nc1cccc([S@@](C)(=O)=NC(=O)CN)c1 [Example 74, (R)-2-(4,4-difluoroazepan-1-yl)-N-(3-(N-glycyl-S-methylsulfonimidoyl)phenyl)-4-methyl-5-(1-methyl-1H-pyrazol-4-yl)nicotinamide]	5 to 50	5 to 50
Cc1c(C(F)(F)F)nnc(N2CCCC(F)(F)CC2)c1C(=O)Nc1cccc([S@@](C)(=O)=NC(=O)C(C)(C)N)c1 [Example 235, (R)-N-(3-(N-(2-amino-2-methylpropanoyl)-S-methylsulfonimidoyl)phenyl)-3-(4,4-difluoroazepan-1-yl)-5-methyl-6-(trifluoromethyl)pyridazine-4-carboxamide]	≤ 5	≤ 5
CC#Cc1cnc(N2CCCC(F)(F)CC2)c(C(=O)Nc2cccc([S@](C)(=N)=O)c2)c1C [Example 127, (R)-2-(4,4-difluoroazepan-1-yl)-4-methyl-N-(3-(S-methylsulfonimidoyl)phenyl)-5-(prop-1-yn-1-yl)nicotinamide]	≤ 5	≤ 5
C[S@](=N)(=O)c1cccc(NC(=O)c2cc(C(F)(F)F)nnc2N2CCCC(F)(F)CC2)c1 [Example 19, (S)-3-(4,4-difluoroazepan-1-yl)-N-(3-(S-methylsulfonimidoyl)phenyl)-6-(trifluoromethyl)pyridazine-4-carboxamide]	100 to 200	> 200
Cc1c(-c2cnco2)cnc(N2CCCC(F)(F)CC2)c1C(=O)Nc1cccc([S@](C)(=N)=O)c1 [Example 147, (R)-2-(4,4-difluoroazepan-1-yl)-4-methyl-N-(3-(S-methylsulfonimidoyl)phenyl)-5-(oxazol-5-yl)nicotinamide]	5 to 50	5 to 50
Cc1c(-c2ccn(C)n2)cnc(N2CCCC(F)(F)CC2)c1C(=O)Nc1cccc(S(C)(=N)=O)c1 (stereo not drawn) [Example 89, 2-(4,4-difluoroazepan-1-yl)-4-methyl-5-(1-methyl-1H-pyrazol-3-yl)-N-(3-(S-methylsulfonimidoyl)phenyl)nicotinamide]	100 to 200	100 to 200
COc1ccc(-c2cnc(N3CCCC(F)(F)CC3)c(C(=O)Nc3cccc(S(C)(=N)=O)c3)c2C)cc1 (stereo not drawn) [Example 93, 2-(4,4-difluoroazepan-1-yl)-5-(4-methoxyphenyl)-4-methyl-N-(3-(S-methylsulfonimidoyl)phenyl)nicotinamide]	≤ 5	≤ 5
Cc1c(N2CC3(COC3)C2)cnc(N2CCCC(F)(F)CC2)c1C(=O)Nc1cccc([S@](C)(=N)=O)c1 [Example 116, (R)-2-(4,4-difluoroazepan-1-yl)-4-methyl-N-(3-(S-methylsulfonimidoyl)phenyl)-5-(2-oxa-6-azaspiro[3.3]heptan-6-yl)nicotinamide]	> 200	> 200
C[S@@+]([O-])c1cc(NC(=O)c2cc(Cl)c(C(F)(F)F)cc2N2CCCC(F)(F)CC2)ccc1F [Example 206, (R)-5-chloro-2-(4,4-difluoroazepan-1-yl)-N-(4-fluoro-3-(methylsulfinyl)phenyl)-4-(trifluoromethyl)benzamide]	≤ 5	≤ 5
Cc1ccsc1-c1nnc(N2CCCCCC2)c(C(=O)Nc2cccc(S(C)(=N)=O)c2)c1C (stereo not drawn) [Example 79, 3-(Azepan-1-yl)-5-methyl-N-(3-(S-methylsulfonimidoyl)phenyl)-6-(3-methylthiophen-2-yl)pyridazine-4-carboxamide]	> 200	> 200
Cc1c(-c2c(F)cccc2F)cnc(N2CCCC(F)(F)CC2)c1C(=O)Nc1cccc(S(C)(=N)=O)c1 (stereo not drawn) [Example 104, 2-(4,4-difluoroazepan-1-yl)-5-(2,6-difluorophenyl)-4-methyl-N-(3-(S-methylsulfonimidoyl)phenyl)nicotinamide]	5 to 50	5 to 50

Second part, the compound after the results:

IC50 [1] [nM]	IC50 [2] [nM]	SMILES
> 200	> 200	Cc1cc(C(N)=O)nc(N2CCCC(F)(F)CC2)c1C(=O)Nc1cccc([S@](C)(=N)=O)c1 [Example 153, (R)-6-(4,4-difluoroazepan-1-yl)-4-methyl-N5-(3-(S-methylsulfonimidoyl)phenyl)pyridine-2,5-dicarboxamide]
100 to 200	> 200	Cc1c(C2CNC2)cnc(N2CCCC(F)(F)CC2)c1C(=O)Nc1cccc(S(C)(=N)=O)c1 (stereo not drawn) [Example 173, 5-(azetidin-3-yl)-2-(4,4-difluoroazepan-1-yl)-4-methyl-N-(3-(S-methylsulfonimidoyl)phenyl)nicotinamide]
50 to 100	50 to 100	CNCC(=O)N=[S@](C)(=O)c1cccc(NC(=O)c2c(N3CCCC(F)(F)CC3)nnc(-c3cnn(C)c3)c2C)c1 [Example 72, (R)-3-(4,4-difluoroazepan-1-yl)-5-methyl-6-(1-methyl-1H-pyrazol-4-yl)-N-(3-(S-methyl-N-(methylglycyl)sulfonimidoyl)phenyl)pyridazine-4-carboxamide]
50 to 100	50 to 100	Cc1nc(C(F)(F)F)nc(N2CCCC(F)(F)CC2)c1C(=O)Nc1cccc([S@@](C)(=N)=O)c1 [Example 143, (S)-4-(4,4-difluoroazepan-1-yl)-6-methyl-N-(3-(S-methylsulfonimidoyl)phenyl)-2-(trifluoromethyl)pyrimidine-5-carboxamide]
100 to 200	100 to 200	Cc1c(-c2cnn(C)c2)cnc(N2CCCC(F)(F)CC2)c1C(=O)Nc1ccnc([S@](C)(=N)=O)c1 [Example 200, (R)-2-(4,4-difluoroazepan-1-yl)-4-methyl-5-(1-methyl-1H-pyrazol-4-yl)-N-(2-(S-methylsulfonimidoyl)pyridin-4-yl)nicotinamide]
≤ 5	≤ 5	Cc1c(C(F)(F)F)cnc(N2CCCC(F)(F)CC2)c1C(=O)Nc1ccnc([S@@](C)(=N)=O)c1 (single isomer, unassigned) [Example 188]
> 200	> 200	Cc1c(C(F)(F)F)nnc(N2CCCC(F)(F)CC2)c1C(=O)Nc1ccnnc1 [Example 31, 3-(4,4-Difluoroazepan-1-yl)-5-methyl-N-(pyridazin-4-yl)-6-(trifluoromethyl)pyridazine-4-carboxamide]
5 to 50	5 to 50	CNCC(=O)N=[S@](C)(=O)c1cccc(NC(=O)c2c(N3CCCC(F)(F)CC3)ncc(-c3cnn(C)c3)c2C)c1 [Example 46, (R)-2-(4,4-difluoroazepan-1-yl)-4-methyl-5-(1-methyl-1H-pyrazol-4-yl)-N-(3-(S-methyl-N-(methylglycyl)sulfonimidoyl)phenyl)nicotinamide]
5 to 50	5 to 50	Cc1c(C#N)cnc(N2CCCC(F)(F)CC2)c1C(=O)Nc1ccnc([S@](C)(=N)=O)c1 [Example 201, (R)-5-cyano-2-(4,4-difluoroazepan-1-yl)-4-methyl-N-(2-(S-methylsulfonimidoyl)pyridin-4-yl)nicotinamide]
5 to 50	5 to 50	Cc1cc(C#N)nc(N2CCCC(F)(F)CC2)c1C(=O)Nc1ccnc([S@](C)(=N)=O)c1 [Example 204, (R)-6-cyano-2-(4,4-difluoroazepan-1-yl)-4-methyl-N-(2-(S-methylsulfonimidoyl)pyridin-4-yl)nicotinamide]
